Measured values taken from PubChem BioAssay AID1963852 (Molecular Pharmacology Branch, DTP, NCI, 2024).

System: 282377-053-R-J1-PDC complex spheroid viability
Experiment: Anticancer human tumor 282377-053-R-J1-PDC patient-derived colon adenocarcinoma cell line growth inhibition [POLQ]
Details: for IC50: curve of first compound; for viability, T/C: stronger effect = lower value
Procedure, shortened: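 PDC + HUVEC + MSC complex spheroids; POLQ inhibitors ± partner drugs; top conc. at/near clinical Cmax, else 10 microM (SN-38 1 microM), half-log dilutions; 37 degrees C, 5% CO2.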

[1] = second compound 0.0316 µM, first compound 0.0316 µM
[2] = second compound 0.0316 µM, first compound 0.1 µM
[3] = second compound 0.0316 µM, first compound 0.316 µM
[4] = second compound 0.0316 µM, first compound 1 µM
[5] = second compound 0.0316 µM, first compound 3.16 µM
[6] = second compound 0.0316 µM, first compound 10 µM
[7] = second compound 0.1 µM, first compound 0.0316 µM
[8] = second compound 0.1 µM, first compound 0.1 µM
[9] = second compound 0.1 µM, first compound 0.316 µM
[10] = second compound 0.1 µM, first compound 1 µM
[11] = second compound 0.1 µM, first compound 3.16 µM
[12] = second compound 0.1 µM, first compound 10 µM
[13] = second compound 0.316 µM, first compound 0.0316 µM
[14] = second compound 0.316 µM, first compound 0.1 µM
[15] = second compound 0.316 µM, first compound 0.316 µM
[16] = second compound 0.316 µM, first compound 1 µM
[17] = second compound 0.316 µM, first compound 3.16 µM
[18] = second compound 0.316 µM, first compound 10 µM
[19] = second compound 1 µM, first compound 0.0316 µM
[20] = second compound 1 µM, first compound 0.1 µM
[21] = second compound 1 µM, first compound 0.316 µM
[22] = second compound 1 µM, first compound 1 µM
[23] = second compound 1 µM, first compound 3.16 µM
[24] = second compound 1 µM, first compound 10 µM
[25] = second compound 3.16 µM, first compound 0.0316 µM
[26] = second compound 3.16 µM, first compound 0.1 µM
[27] = second compound 3.16 µM, first compound 0.316 µM
[28] = second compound 3.16 µM, first compound 1 µM
[29] = second compound 3.16 µM, first compound 3.16 µM
[30] = second compound 3.16 µM, first compound 10 µM
[31] = second compound 10 µM, first compound 0.0316 µM
[32] = second compound 10 µM, first compound 0.1 µM
[33] = second compound 10 µM, first compound 0.316 µM
[34] = second compound 10 µM, first compound 1 µM
[35] = second compound 10 µM, first compound 3.16 µM
[36] = second compound 10 µM, first compound 10 µM
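Note: spheroids exposed to compounds for seven days.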
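Throughout, for viability, T/C: 100% = DMSO vehicle control viability.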

Compound `CC1COCCN1c1cc(C2(S(C)(=N)=O)CC2)nc(-c2ccnc3[nH]ccc23)n1` (stereo unspecified) + Nc1ccc(C#CCN(C(=O)Cc2ncc(C(F)(F)F)cc2C(F)(F)F)c2ccc(F)cc2)nn1 has an IC50 (second compound 0.0316 µM) of over 10 µM, an IC50 (second compound 0.1 µM) of over 10 µM and an IC50 (second compound 0.316 µM) of over 10 µM. For the same compound, the IC50 (second compound 1 µM) was over 10 µM, the IC50 (second compound 3.16 µM) was over 10 µM and the IC50 (second compound 10 µM) was over 10 µM. For the same compound, the viability, T/C [1] was 117%, the viability, T/C [2] was 96.5% and the viability, T/C [3] was 90.7%. For the same compound, the viability, T/C [4] was 86.2%, the viability, T/C [5] was 73.6% and the viability, T/C [6] was 54.6%. It also gave a viability, T/C [7] of 99.2%, a viability, T/C [8] of 106% and a viability, T/C [9] of 93.1%. For the same compound, the viability, T/C [10] was 79.8%, the viability, T/C [11] was 78.7% and the viability, T/C [12] was 58.5%. It also gave a viability, T/C [13] of 116%, a viability, T/C [14] of 101% and a viability, T/C [15] of 93.1%. The viability, T/C [16] was 81.5%, the viability, T/C [17] was 80% and the viability, T/C [18] was 59.7%. It also gave a viability, T/C [19] of 112%, a viability, T/C [20] of 90.9% and a viability, T/C [21] of 84.7%. It also gave a viability, T/C [22] of 91.7%, a viability, T/C [23] of 75.1% and a viability, T/C [24] of 70.3%. It also gave a viability, T/C [25] of 116%, a viability, T/C [26] of 101% and a viability, T/C [27] of 91.4%. It also gave a viability, T/C [28] of 92.4%, a viability, T/C [29] of 76.1% and a viability, T/C [30] of 57.5%. For the same compound, the viability, T/C [31] was 96.5%, the viability, T/C [32] was 119% and the viability, T/C [33] was 106%. The viability, T/C [34] was 95%, the viability, T/C [35] was 93% and the viability, T/C [36] was 72.4%.
`CCCS(=O)(=O)Nc1ccc(F)c(C(=O)c2c[nH]c3ncc(-c4ccc(Cl)cc4)cc23)c1F` + Nc1ccc(C#CCN(C(=O)Cc2ncc(C(F)(F)F)cc2C(F)(F)F)c2ccc(F)cc2)nn1 was tested, and the IC50 (second compound 0.0316 µM) was over 10 µM, the IC50 (second compound 0.1 µM) was over 10 µM and the IC50 (second compound 0.316 µM) was over 10 µM. For the same compound, the IC50 (second compound 1 µM) was over 10 µM, the IC50 (second compound 3.16 µM) was over 10 µM and the IC50 (second compound 10 µM) was over 10 µM. It also gave a viability, T/C [1] of 94.3%, a viability, T/C [2] of 77% and a viability, T/C [3] of 71.1%. For the same compound, the viability, T/C [4] was 57.9%, the viability, T/C [5] was 60.4% and the viability, T/C [6] was 61.9%. It also gave a viability, T/C [7] of 105%, a viability, T/C [8] of 80.2% and a viability, T/C [9] of 77%. For the same compound, the viability, T/C [10] was 60.5%, the viability, T/C [11] was 77.2% and the viability, T/C [12] was 80.7%. It also gave a viability, T/C [13] of 81.5%, a viability, T/C [14] of 81% and a viability, T/C [15] of 73%. It also gave a viability, T/C [16] of 70.9%, a viability, T/C [17] of 66.2% and a viability, T/C [18] of 74.1%. It also gave a viability, T/C [19] of 99.8%, a viability, T/C [20] of 93.9% and a viability, T/C [21] of 68.9%. The viability, T/C [22] was 62.4%, the viability, T/C [23] was 59.1% and the viability, T/C [24] was 60.1%. The viability, T/C [25] was 120%, the viability, T/C [26] was 90% and the viability, T/C [27] was 69.5%. For the same compound, the viability, T/C [28] was 78.8%, the viability, T/C [29] was 63.4% and the viability, T/C [30] was 70.4%. The viability, T/C [31] was 107%, the viability, T/C [32] was 97.6% and the viability, T/C [33] was 80.8%. For the same compound, the viability, T/C [34] was 71.9%, the viability, T/C [35] was 63.9% and the viability, T/C [36] was 65.3%.
`CNCc1ccc(-c2[nH]c3cc(F)cc4c3c2CCNC4=O)cc1` + Nc1ccc(C#CCN(C(=O)Cc2ncc(C(F)(F)F)cc2C(F)(F)F)c2ccc(F)cc2)nn1 was tested, and the IC50 (second compound 0.0316 µM) was over 10 µM, the IC50 (second compound 0.1 µM) was over 10 µM and the IC50 (second compound 0.316 µM) was over 10 µM. It also gave an IC50 (second compound 1 µM) of over 10 µM, an IC50 (second compound 3.16 µM) of over 10 µM and an IC50 (second compound 10 µM) of over 10 µM. It also gave a viability, T/C [1] of 105%, a viability, T/C [2] of 88.6% and a viability, T/C [3] of 90%. The viability, T/C [4] was 104%, the viability, T/C [5] was 108% and the viability, T/C [6] was 112%. The viability, T/C [7] was 119%, the viability, T/C [8] was 117% and the viability, T/C [9] was 104%. It also gave a viability, T/C [10] of 94.6%, a viability, T/C [11] of 97.4% and a viability, T/C [12] of 112%. For the same compound, the viability, T/C [13] was 95.7%, the viability, T/C [14] was 86.2% and the viability, T/C [15] was 89.8%. For the same compound, the viability, T/C [16] was 108%, the viability, T/C [17] was 92% and the viability, T/C [18] was 108%. The viability, T/C [19] was 95%, the viability, T/C [20] was 103% and the viability, T/C [21] was 100%. For the same compound, the viability, T/C [22] was 90.8%, the viability, T/C [23] was 115% and the viability, T/C [24] was 101%. For the same compound, the viability, T/C [25] was 109%, the viability, T/C [26] was 98.3% and the viability, T/C [27] was 127%. The viability, T/C [28] was 92.4%, the viability, T/C [29] was 118% and the viability, T/C [30] was 139%. For the same compound, the viability, T/C [31] was 113%, the viability, T/C [32] was 105% and the viability, T/C [33] was 126%. The viability, T/C [34] was 121%, the viability, T/C [35] was 113% and the viability, T/C [36] was 145%.
